Measurements as given in patent US11077100B2, “Tetrahydroquinoline derivatives as P2X7 receptor antagonists” (RaQualia Pharma Inc., priority 2017, dated 2021).

Key:
rat P2X7 = rat P2X7 (Rattus norvegicus (Rat), UniProt Q64663); assay: Rat P2X7 functional assay (Ca2+ influx, Fluo-4, FDSS); assay type: cell-based; conditions: HEK293 cells stably expressing rat P2X7; BzATP final 10 microM; 7-point dose-response; read-out: Antagonistic activities with respect to the rat P2X7 receptor (IC50)
Description: Rat P2X7 Functional Assay
The functional activity of compounds was determined by measuring changes in intracellular calcium concentration using a Ca^2+-sensitive fluorescent dye, Fluo-4 (Molecular Probes). The changes in fluorescent signal were monitored by the cell imaging technology by Hamamatsu Photonics's Functional Drug Screening System (FDSS). Increases in intracellular Ca^2+ concentration were readily detected upon activation with BzATP.
HEK293 cells stably expressing rat P2X7 (GenBank accession number NM_019256) were grown in Corning CellBIND cell culture flasks, in a 5% CO2 humidified incubator to about 80% confluence. Media composition consisted of Dulbecco's Modified Eagle Medium (high glucose), 10% fetal bovine serum ([…]), 100 units/[…] Penicillin, 100 microg/mL Streptomycin and 250 microg/mL Geneticine.
1. […] Plate-out HEK293-rat P2X7 cells (40 microL medium containing 5,000 cells per well) into poly-D-lysine coated 384-well plates (BD Falcon) at 24 h prior to assay.
2. Incubate at 37° C. in 5% CO2.
3. Incubate the plate at 37° C. in 5% CO2 for 1 h.
5. Test compounds were prepared at 100× the test concentration in DMSO by serial dilution with Biomek-FX liquid handling instrument. 33× diluted compound solutions in assay buffer were prepared in intermediate compound plate with Biomek-NX liquid handling instrument. A further 3× dilution occurred in below steps 6 and 7.
6. Add 20 microL of 33× diluted compound solutions into each well and leave the plate for 10 min under the dark at room temperature.
7. Measure activity by FDSS as follows: • Set the assay plate on the stacker of FDSS. • Start the detection of fluorescence intensity at 540 nm by 480 nm exicitation. • After 30 seconds, add 20 microL of assay buffer containing 30 microM BzATP (final 10 microM).
IC50 values for compounds of the present invention were determined from 7-point dose-response studies. Curves were generated using the average of duplicate wells for each data point. Finally, the IC50 values are calculated with the best-fit dose curve determined by XLfit (ID Business Solutions Ltd.).

human P2X7 = human P2X7 (Homo sapiens (Human), UniProt Q99572); assay: Human P2X7 functional assay (Ca2+ influx, Fluo-4, FDSS); assay type: cell-based; conditions: antagonistic activity with respect to the human P2X7 receptor; BzATP final concentration 80 microM
Procedure, shortened: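 HEK293 cells stably expressing C-terminally FLAG-tagged human P2X7, loaded with Fluo-4. Compounds were preincubated for 10 min at room temperature, then 80 μM BzATP (final) was added and Ca2+ fluorescence read at 540 nm (480 nm excitation) by FDSS. IC50 values come from 7-point curves, duplicate wells.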

Sequence of human P2X7 (Q99572 whole entry): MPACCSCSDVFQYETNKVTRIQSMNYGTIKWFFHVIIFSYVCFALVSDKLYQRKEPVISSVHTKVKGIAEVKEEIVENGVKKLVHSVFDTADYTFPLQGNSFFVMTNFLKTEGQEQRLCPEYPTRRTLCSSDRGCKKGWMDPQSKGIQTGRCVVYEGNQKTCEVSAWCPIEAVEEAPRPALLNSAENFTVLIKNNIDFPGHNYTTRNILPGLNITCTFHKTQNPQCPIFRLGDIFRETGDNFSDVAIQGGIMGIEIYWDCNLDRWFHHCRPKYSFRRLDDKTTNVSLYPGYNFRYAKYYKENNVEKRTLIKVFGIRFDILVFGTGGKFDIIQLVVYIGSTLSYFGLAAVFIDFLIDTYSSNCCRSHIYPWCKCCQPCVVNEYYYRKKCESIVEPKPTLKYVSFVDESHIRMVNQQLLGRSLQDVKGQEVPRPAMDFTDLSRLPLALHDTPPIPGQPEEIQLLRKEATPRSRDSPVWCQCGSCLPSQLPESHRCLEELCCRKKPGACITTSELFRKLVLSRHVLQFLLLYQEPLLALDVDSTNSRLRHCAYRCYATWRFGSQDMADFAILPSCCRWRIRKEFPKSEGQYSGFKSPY
Sequence of rat P2X7 (Q64663 whole entry): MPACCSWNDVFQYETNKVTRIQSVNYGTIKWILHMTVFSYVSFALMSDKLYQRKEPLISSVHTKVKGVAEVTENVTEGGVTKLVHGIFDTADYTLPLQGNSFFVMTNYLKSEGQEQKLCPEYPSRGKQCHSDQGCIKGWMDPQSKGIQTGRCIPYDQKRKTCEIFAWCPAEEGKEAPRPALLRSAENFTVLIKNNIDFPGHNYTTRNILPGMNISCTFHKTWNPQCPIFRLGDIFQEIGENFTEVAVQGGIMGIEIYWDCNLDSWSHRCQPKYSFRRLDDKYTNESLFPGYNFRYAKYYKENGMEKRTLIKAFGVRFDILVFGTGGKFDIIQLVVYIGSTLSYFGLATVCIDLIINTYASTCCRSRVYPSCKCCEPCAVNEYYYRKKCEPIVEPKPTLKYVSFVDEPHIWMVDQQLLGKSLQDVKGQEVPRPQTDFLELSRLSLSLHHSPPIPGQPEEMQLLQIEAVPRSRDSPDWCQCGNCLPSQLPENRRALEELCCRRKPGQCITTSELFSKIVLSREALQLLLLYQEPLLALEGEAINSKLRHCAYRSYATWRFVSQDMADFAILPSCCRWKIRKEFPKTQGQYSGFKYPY

SMILES	IC50 (rat P2X7)	IC50 (human P2X7)
C[C@]1(O)CC[C@@](F)(C(=O)NCc2ncc(Cl)cc2Cl)c2cccnc21 [Example 272, (5S,8S)-N-((3,5-dichloropyridin-2-yl)methyl)-5-fluoro-8-hydroxy-8-methyl-5,6,7,8-tetrahydroquinoline-5-carboxamide]	< 1000 nM	< 50 nM
O=C(NCc1cccc(C(F)(F)F)c1Cl)C1(F)CCC(O)(CO)c2ncccc21 (stereo not drawn) [Example 35, N-(2-chloro-3-(trifluoromethyl)benzyl)-5-fluoro-8-hydroxy-8-(hydroxymethyl)-5,6,7,8-tetrahydroquinoline-5-carboxamide]	< 1000 nM	< 50 nM
O=C(NCc1ccc(F)c(F)c1Cl)[C@@H]1CC[C@H](O)c2ncccc21 [Example 82, (5R,8S)-N-(2-chloro-3,4-difluorobenzyl)-8-hy-droxy-5,6,7,8-tetrahydro-quinoline-5-carboxamide]	< 1000 nM	< 50 nM
O=C1CCC(C(=O)NCc2cccc(C(F)(F)F)c2Cl)c2cccnc21 (stereo not drawn) [Example 2, N-(2-chloro-3-(trifluoromethyl)benzyl)-8-oxo-5,6,7,8-tetrahydroquinoline-5-carboxamide]	< 1000 nM	< 50 nM
O=C(NCc1ccc(Cl)c(F)c1F)[C@]1(F)CC[C@@](O)(CO)c2ncccc21 [Example 322, (5S,8S)-N-(4-chloro-2,3-difluorobenzyl)-5-fluoro-8-hydroxy-8-(hydroxymethyl)-5,6,7,8-tetrahydroquinoline-5-carboxamide]	< 1000 nM	101 to 300 nM
CC1(O)CCC(F)(C(=O)NCc2cccc(C(F)(F)F)c2Cl)c2cccnc21 (stereo not drawn) [Example 58, N-(2-chloro-3-(trifluoro-methyl)benzyl)-5-fluoro-8-hydroxy-8-methyl-5,6,7,8-tetrahydro-quinoline-5-carboxamide]	< 1000 nM	< 50 nM
COCc1cc(Cl)cc(Cl)c1CNC(=O)C1CCC(O)c2ncccc21 (stereo not drawn) [Example 10, N-(2,4-dichloro-6-(methoxy-methyl)benzyl)-8-hydroxy-5,6,7,8-tetrahydro-quinoline-5-carboxamide]	< 1000 nM	< 50 nM
O=C(NCc1c(Cl)cccc1Cl)[C@]1(F)CC[C@H](O)c2ncccc21 [Example 139, (5S,8S)-N-(2,6-dichlorobenzyl)-5-fluoro-8-hydroxy-5,6,7,8-tetrahydroquinoline-5-carboxamide]	< 1000 nM	< 50 nM
N[C@]1(CO)CC[C@@](F)(C(=O)NCc2ccc(Cl)cc2Cl)c2cccnc21 (relative stereo) [Example 59, (5S*,8R*)-8-amino-N-(2,4-dichloro-benzyl)-5-fluoro-8-(hydroxymethyl)-5,6,7,8-tetrahydroquinoline-5-carboxamide]	< 1000 nM	< 50 nM
O=C(NCc1c(Cl)cccc1C(F)(F)F)[C@]1(F)CC[C@H](O)c2ncccc21 [Example 179, (5S,8S)-N-(2-chloro-6-(trifluoromethyl)benzyl)-5-fluoro-8-hydroxy-5,6,7,8-tetrahydroquinoline-5-carboxamide]	< 1000 nM	< 50 nM
CNCC1(O)CCC(F)(C(=O)NCc2c(C)cc(Cl)cc2Cl)c2cccnc21 (stereo not drawn) [Example 46, N-(2,4-dichloro-6-methylbenzyl)-5-fluoro-8-hydroxy-8-((methyl-amino)methyl)-5,6,7,8-tetra-hydroquinoline-5-carboxamide]	< 1000 nM	< 50 nM
Cc1cc(Cl)cc(Cl)c1CNC(=O)[C@H]1C[C@H](O)c2ncccc21 [Example 83, (5S,7S)-N-(2,4-dichloro-6-methylbenzyl)-7-hy-droxy-5,7-dihydro-5H-cyclopenta[b]pyridin-5-carboxamide]	< 1000 nM	101 to 300 nM
O=C(NCc1ccc(F)cc1Cl)[C@H]1CC[C@H](O)c2ncccc21 [Example 67, (5S,8S)-N-(2-chloro-4-fluorobenzyl)-8-hydroxy-5,6,7,8-tetrahydroquinoline-5-carboxamide]	< 1000 nM	101 to 300 nM
O=C1CC[C@@](F)(C(=O)NCc2cccc(C(F)(F)F)c2Cl)c2cccnc21 [Example 247, (S)-N-(2-chloro-3-(trifluoromethyl)benzyl)-5-fluoro-8-oxo-5,6,7,8-tetrahydroquinoline-5-carboxamide]	< 1000 nM	< 50 nM

The remaining lines, values ahead:

IC50 (rat P2X7)	IC50 (human P2X7)	SMILES
< 1000 nM	50 to 100 nM	O=C(NCc1cccc(Cl)c1)[C@]1(F)CC[C@H](O)c2ncccc21 [Example 205, (5S,8S)-N-(3-chlorobenzyl)-5-fluoro-8-hydroxy-5,6,7,8-tetrahydroquinoline-5-carboxamide]
< 1000 nM	1000 to 3000 nM	O=C(NCc1ccc(F)c(F)c1F)[C@]1(F)CC[C@](O)(CO)c2ncccc21 [Example 309, (5S,8R)-5-fluoro-8-hydroxy-8-(hydroxymethyl)-N-(2,3,4-trifluorobenzyl)-5,6,7,8-tetrahydroquinoline-5-carboxamide]
< 1000 nM	101 to 300 nM	O=C(NCc1ccc(F)c(F)c1F)[C@@]1(F)CC[C@@H](O)c2ncccc21 [Example 136, (5R,8R)-5-fluoro-8-hydroxy-N-(2,3,4-trifluorobenzyl)-5,6,7,8-tetrahydroquinoline-5-carboxamide]
< 1000 nM	< 50 nM	O=C(NCc1c(F)cc(Cl)cc1F)[C@]1(F)CC[C@H](O)c2ncccc21 [Example 184, (5S,8S)-N-(4-chloro-2,6-difluorobenzyl)-5-fluoro-8-hydroxy-5,6,7,8-tetrahydroquinoline-5-carboxamide]
< 1000 nM	101 to 300 nM	COc1ccc(CNC(=O)[C@]2(F)CC[C@H](O)c3ncccc32)c(Cl)c1 [Example 172, (5S,8S)-N-(2-chloro-4-methoxybenzyl)-5-fluoro-8-hydroxy-5,6,7,8-tetrahydroquinoline-5-carboxamide]
< 1000 nM	< 50 nM	O=C(NCc1ccc(F)c(F)c1F)[C@]1(F)CC[C@H](O)c2ncccc21 [Example 137, (5S,8S)-5-fluoro-8-hydroxy-N-(2,3,4-trifluorobenzyl)-5,6,7,8-tetrahydroquinoline-5-carboxamide]
< 1000 nM	50 to 100 nM	CO[C@H]1CC[C@@](F)(C(=O)NCc2ccc(F)cc2F)c2cccnc21 [Example 342, (5S,8S)-N-(2,4-difluorobenzyl)-5-fluoro-8-methoxy-5,6,7,8-tetrahydroquinoline-5-carboxamide]
< 1000 nM	< 50 nM	O=C(NCc1ccc(Cl)cc1F)[C@]1(F)CC[C@H](O)c2ncccc21 [Example 146, (5S,8S)-N-(4-chloro-2-fluorobenzyl)-5-fluoro-8-hydroxy-5,6,7,8-tetrahydroquinoline-5-carboxamide]
< 1000 nM	< 50 nM	O=C(NCc1ccc(F)c(Cl)c1F)[C@]1(F)CC[C@H](O)c2ncccc21 [Example 185, (5S,8S)-N-(3-chloro-2,4-difluorobenzyl)-5-fluoro-8-hydroxy-5,6,7,8-tetrahydroquinoline-5-carboxamide]
< 1000 nM	< 50 nM	O=C(NCc1ccc(Cl)cc1Cl)[C@]1(F)CC[C@@H](O)c2ncccc21 [Example 106, (5S,8R)-N-(2,4-dichlorobenzyl)-5-fluoro-8-hydroxy-5,6,7,8-tetrahydroquinoline-5-carboxamide]
